According to patent US5324747A, “N-substituted anilines, inhibitors of phospholipases A2” (Hoffmann-La Roche Inc., priority 1992, dated 1994):

What was measured:
HSF-PLA2 = biological target: T1, HSF-PLA2 (Homo sapiens, UniProt P14555); assay: Assay for Inhibition of HSF-PLA2 In Vitro; assay type: biochemical; conditions: for IC50: read-out: Inhib of HSF-PLA2 IC50; for inhibition at 1 µM: read-out: Inhib of HSF-PLA2, % inhibition
T1 construct: extracellular enzyme obtained from human synovial fluid (HSF-PLA2); from tissue; host or cells: pooled human synovial fluid, added at 0.1% (v/v)
T1 sequence (P14555 21-144): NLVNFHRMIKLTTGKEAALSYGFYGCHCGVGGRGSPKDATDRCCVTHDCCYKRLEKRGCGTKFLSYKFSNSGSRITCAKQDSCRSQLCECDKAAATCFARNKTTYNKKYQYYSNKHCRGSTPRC
Method in brief: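 Extracellular PLA2 isolated from human synovial fluid, incubated 30 min at 37 °C with 14C-labelled phospholipid substrate in duplicate. Lipids were chloroform-extracted, and released 14C-oleic acid was separated from substrate by silica TLC; a no-enzyme control was run in each experiment.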

PLA2 Rat Paw Edema = assay: Phospholipase A2 Rat Paw Edema; assay type: in vivo, Lewis rats; conditions: Rattus norvegicus; 2 hr; 30 mg/kg; read-out: % Inhib of PLA2 Rat Paw Edema 2 hr (30 mg/kg)
Experimental: Phospholipase A2 Rat Paw Edema
Representation compounds of the invention were tested in rats to determine their ability to inhibit the acute inflammatory response induced by the injection of snake venom phospholipase A2. Test compounds are administered intraperitoneally or orally to groups of seven Lewis rats (≈200 gm) 1 hr prior to phospholipase A2 administration. The test compounds are dissolved in dimethyl sulfoxide for intraperitoneal administration and dissolved or suspended in Labrafil M-1944CS for oral administration. At 0 hr, 5 ug (10 units) of purified phospholipase A2 from Naja naja venom (Sigma Chem. Co.) dissolved in 0.1 mL of pyrogen free saline is injected subplantarly into the right hind paw to elicit the inflammatory response. The volume (in mL) of the right hind paw is measured by immersion of the paw to the level of the lateral malleolus in an aqueous plethysmometer immediately prior to the injection of phospholipase A2 and then at 0.5, 2 and 4 hr after phospholipase A2 injection. The paw edema is calculated by subtracting the zero time reading from the readings taken after injection. The percent change of the edema volume from the vehicle treated control is calculated to determine the activity of the test compound. Statistical analysis of the mean paw edema values of the control versus the treated groups is performed using Student's t-test. Significance of changes from mean value for vehicle-treated animals (*p<0.05, **p<0.01, ***p<0.001, ns/not significant).

[1] = test system: Croton Oil Mouse Ear Edema; assay: Croton Oil Mouse Ear Edema Test; assay type: in vivo, CD-1 mice; conditions: topical, coapplied, 6 hours
[2] = test system: rat carrageenan-induced paw edema; assay: Rat Carrageenan Paw Edema; assay type: in vivo, Lewis rats; conditions: 2 h; for inhibition in vivo at 30 mg/kg: 30 mg/kg ip
Experimental: Rat Carrageenan Paw Edema
Representative compounds of the invention were tested in rat carrageenan-induced paw edema to determine their ability to inhibit this acute inflammatory response. Test compounds are administered intraperitoneally or orally to groups of seven Lewis rats (≈200 gm) 1 hr prior to carrageenan administration. The test compounds are dissolved in dimethyl sulfoxide for intraperitoneal administration and dissolved or suspended in Labrafil […] for oral administration. At 0 hour, 0.1 mL of 1% carrageenan dissolved in pyrogen free saline is injected subplantarly into the right hind paw to elicit the inflammatory response. The volume (in mL) of the right hind paw is measured by immersion of the paw to the level of the lateral malleolus in an aqueous plethysmometer immediately prior to the injection of carrageenan and then at 1, 2 and 4 hr after carrageenan injection. The paw edema is calculated by substracting the zero time reading from the readings taken after injection. The percent change of the edema volume from the vehicle treated control is calculated to determine the activity of the test compound. Statistical analysis of the mean paw edema values of the control versus the treated groups are performed using Student's t-test.

[3] = test system: adjuvant arthritis model in rats; assay: Established Adjuvant Arthritis Test; assay type: in vivo
Experimental: Established Adjuvant Arthritis Test
Representative compounds of the invention were tested in the standard adjuvant arthritis model in rats, induced by Freunds complete adjuvant, as described by C. E. Brinckerhoff, J. W. Coffey and A. C. Sullivan, Science, 221, p. 756-758 (1983).

| Compound | IC50 (HSF-PLA2) | inhibition in vivo at 30 mg/kg (PLA2 Rat Paw Edema) | % Inhib of Croton Oil Mouse Ear Edema (1 mg) [1] | inhibition in vivo at 30 mg/kg [2] | Change in Paw Volume (mL) Treated ([3]; 30 mg/kg ip) | inhibition at 1 µM (HSF-PLA2) | Change in Paw Volume (mL) Treated ([3]; 10 mg/kg ip) | inhibition in vivo at 10 mg/kg ([2]; 10 mg/kg ip) |
| --- | --- | --- | --- | --- | --- | --- | --- | --- |
| CCCCCCCCCCCCCCCCCCOc1cc(OCCCP(=O)(OCC)OCC)cc(N(CC(=O)O)CC(=O)O)c1 [Example 88, N-(Carboxymethyl)-N-[3-[3-(diethoxyphosphinyl)propoxy]-5-(octadecyloxy)phenyl]glycine] | 400 nM | 46% | 43% | 57% | -0.90 ± 0.11 mL |  |  |  |
| CCCCCCCCCCCCCCCCCCOc1cc(OCCCP(=O)(O)OCC)cc(N(CC(=O)O)CC(=O)O)c1 [Example 89] |  | 45% |  |  | -0.68 ± 0.08 mL | 31% |  |  |
| CCCCCCCCCCCCCCCCCCOc1cc(OCCCOc2ccc([S+](C)[O-])cc2)cc(N(CC(=O)O)CC(=O)O)c1 (stereo not drawn) [Example 159] |  | 78% | 59% | 44% |  | 100% |  |  |
| CCCCCCCCCCOc1cccc(N(CC(=O)O)CC(=O)O)c1 [Example 36a, N-(carboxymethyl)-N-[3-(decyloxy)phenyl]glycine] | 2900 nM | 35% |  | 47% |  |  |  |  |
| CCCCCCCCCCCCCCCCCCOc1cc(OCCCOc2cccc(N)c2)cc(N(CC(=O)O)CC(=O)O)c1 [Example 58n, N-(carboxymethyl)-N-[3-[3-(3-aminophenoxy)propoxy]-5-(octadecyloxy)phenyl]glycine] | 130 nM | 4% | 64% | 65% |  |  | 0.23 ± 0.12 mL |  |
| CCCCCCCCCCCCCCCCCCOc1cc(C(=O)O)cc(N(CC(=O)O)CC(=O)O)c1 [Example 70, N-[3-Carboxy-5-(octadecyloxy)phenyl]-N-(carboxymethyl)glycine] | 1000 nM | 45% | 0% |  |  |  | 0.30 ± 0.09 mL |  |
| CCCCCCCCCCCCCCCCCCOc1cc(OCCCOc2cccc([N+](=O)[O-])c2)cc(N(CC(=O)O)CC(=O)O)c1 [Example 58m, N-(carboxymethyl)-N-[3-[3-(3-nitrophenoxy)propoxy]-5-(octadecyloxy)phenyl]glycine] |  | 52% | 60% |  |  | 79% | 0.40 ± 0.13 mL | 61% |
| CCCCCCCCCCCCCCCCCCOc1cc(OCCCOc2cccc(Br)c2)cc(N(CC(=O)O)CC(=O)O)c1 [Example 108, N-(Carboxymethyl)-N-3-[3-[3-(bromophenoxy)propoxy]-5-(octadecyloxy)phenyl]glycine] |  | 12% | 34% | 33% |  | 92% |  |  |
| CCCCCCCCCCCCCCCCCCOc1cc(OCCOCCOCCOCC)cc(N(CC(=O)O)CC(=O)O)c1 [Example 151] |  | 43% | 54% |  |  | 100% | 0.28 ± 0.16 mL |  |
| CCCCCCCCCCCCCCCCCCOc1cc(NS(=O)(=O)C(F)(F)F)cc(N(CC(=O)O)CC(=O)O)c1 [Example 162, N-(Carboxymethyl)-N-[3-(octadecyloxy)-5-[[(trifluoromethyl)sulfonyl]amino]phenyl]glycine] |  | 65% | 79% | 69% |  | 82% |  |  |
| CCCCCCCCCCCCCCCCCCOc1cc(OCCCCCc2cccc(O)c2O)cc(N(CC(=O)O)CC(=O)O)c1 [Example 146] | 200 nM | 74% | 18% | 55% |  |  |  |  |
| CCCCCCCCCCCCCCCCCCOc1cc(OCCCOc2ccccc2)cc(N(CC(=O)O)CC(=O)O)c1 [Example 58, N-(Carboxymethyl)-N-[3-(octadecyloxy)-5-(3-phenoxypropoxy)phenyl]glycine] | 60 nM | 36% | 78% | 29% |  |  | 0.37 ± 0.14 mL |  |
| CCCCCCCCCCCCCCCCCCOc1cc(OCCCCC(=O)OC)cc(N(CC(=O)O)CC(=O)O)c1 [Example 64] | 60 nM | 61% | 87% | 69% |  |  | 0.65 ± 0.12 mL |  |
| CCCCCCCCCCCCCCCCCCOc1cc(OCCCOc2ccc(S(C)(=O)=O)cc2)cc(N(CC(=O)O)CC(=O)O)c1 [Example 161, N-(Carboxymethyl)-N-[3-[3-[4-(methylsulfonyl)phenoxy]propoxy]-5-(octadecyloxy)phenyl]glycine] |  | 66% | 87% | 56% |  | 100% |  |  |
| CCCCCCCCCCCCCCCCCCOc1cc(OCCO)cc(N(CC(=O)O)CC(=O)O)c1 [Example 58a, N-(carboxymethyl)-N-[3-(2-hydroxyethoxy)-5-(octadecyloxy)phenyl]glycine] | 200 nM | 29% | 0% |  |  |  |  |  |
| CCCCCCCCCCCCCCCCCCOc1cc(OCCCOc2cccc(OC)c2)cc(N(CC(=O)O)CC(=O)O)c1 [Example 58j, N-(carboxymethyl)-N-[3-[3-(3-methoxyphenoxy)propoxy]-5-(octadecyloxy)phenyl]glycine] | 60 nM | 57% | 28% |  |  |  |  |  |
| CCCCCCCCCCCCCCOc1ccc(N(CC(=O)O)CC(=O)O)cc1OCCCCCCCCCCCCCC [Example 119, N-(Carboxymethyl)-N-[3,4-bis(tetradecyloxy)phenyl]glycine] |  | 16% | 49% |  |  | 36% |  |  |
| CCCCCCCCCCCCCCCCCCOc1cc(OCCCCc2ccc3cc(O)c(O)cc3c2)cc(N(CC(=O)O)CC(=O)O)c1 [Example 154, N-(Carboxymethyl)-N-[3-[4-(2,3-dihydroxy-6-naphthalenyl)butoxy]-5-(octadecyloxy)phenyl]glycine] |  | 78% |  | 70% |  | 96% |  |  |
| CCCCCCCCCCCCCCOc1cc(C(=O)OC)cc(N(CC(=O)O)CC(=O)O)c1 [Example 69a, N-(carboxymethyl)-N-[(3-methoxycarbonyl)-5-(tetradecyloxy)phenyl]glycine] |  | 12% | 71% |  |  | 52% |  |  |
| CCCCCCCCCCOc1cc(OCCCCCCCCCC)cc(N(CC(=O)O)CC(=O)OCCN(CC)CC)c1.Cl [Example 33, N-(2-Diethylaminoethoxy-2-oxoethyl)-N-[3,5-bis(decyloxy)phenyl]glycine monohydrochloride salt] |  | 15% | 25% |  |  | -5% |  |  |
| CCCCCCCCCCCCCCCCCCOc1cc(OCCCOc2ccc(C(C)(C)C)cc2)cc(N(CC(=O)O)CC(=O)O)c1 [Example 177, N-(Carboxymethyl)-N-[3-[3-[4-(1,1-dimethylethyl)phenoxy]propoxy]-5-(octadecyloxy)phenyl]glycine] |  | 41% | 22% | 57% |  | 95% |  |  |
